Experimental data reported in PubChem BioAssay AID1919008 (Molecular Pharmacology Branch, DTP, NCI, 2023).

System: DMS-114 complex spheroids with HUVEC/MSC, growth % test/control
Experiment: Anticancer human tumor DMS-114 cell line growth inhibition [AhR];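 also: spheroids exposed to agents for 7 days before readout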;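 as to viability, T/C: 100% = DMSO vehicle control wells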
Details: for IC50: curve of first compound; for viability, T/C: stronger effect = lower value
How it was run: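 Complex tumor spheroids co-cultured with HUVEC and human MSC stroma; AhR antagonists tested in combination with standard-of-care and investigational agents. Top concentration at or near clinical Cmax (else 10 microM), half-log dilutions; growth expressed as percent test/control.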

[1] = second compound 0.1 µM, first compound 0.0316 µM
[2] = second compound 0.1 µM, first compound 0.1 µM
[3] = second compound 0.316 µM, first compound 0.0316 µM
[4] = second compound 0.316 µM, first compound 0.1 µM
[5] = second compound 1 µM, first compound 0.0316 µM
[6] = second compound 1 µM, first compound 0.1 µM
[7] = second compound 3.16 µM, first compound 0.0316 µM
[8] = second compound 3.16 µM, first compound 0.1 µM
[9] = second compound 10 µM, first compound 0.0316 µM
[10] = second compound 10 µM, first compound 0.1 µM

CC[C@@]1(O)C(=O)OCc2c1cc1n(c2=O)Cc2cc3c(CN(C)C)c(O)ccc3nc2-1 + Cc1ccccc1N=Nc1ccc(NC(=O)c2ccnn2C)c(C)c1
IC50 (second compound 0.1 µM): 61.1 nM | IC50 (second compound 0.316 µM): 65.1 nM | IC50 (second compound 1 µM): 71.2 nM | IC50 (second compound 3.16 µM): 74.1 nM | IC50 (second compound 10 µM): 61.2 nM | viability, T/C (second compound 0.1 µM, first compound 0.000316 µM): 99.3% | viability, T/C (second compound 0.1 µM, first compound 0.001 µM): 102% | viability, T/C (second compound 0.1 µM, first compound 0.00316 µM): 97.8% | viability, T/C (second compound 0.1 µM, first compound 0.01 µM): 88.6% | viability, T/C [1]: 66.2% | viability, T/C [2]: 38% | viability, T/C (second compound 0.316 µM, first compound 0.000316 µM): 95% | viability, T/C (second compound 0.316 µM, first compound 0.001 µM): 106% | viability, T/C (second compound 0.316 µM, first compound 0.00316 µM): 100% | viability, T/C (second compound 0.316 µM, first compound 0.01 µM): 102% | viability, T/C [3]: 61.7% | viability, T/C [4]: 43% | viability, T/C (second compound 1 µM, first compound 0.000316 µM): 99.2% | viability, T/C (second compound 1 µM, first compound 0.001 µM): 92.3% | viability, T/C (second compound 1 µM, first compound 0.00316 µM): 99.6% | viability, T/C (second compound 1 µM, first compound 0.01 µM): 94% | viability, T/C [5]: 65% | viability, T/C [6]: 43.7% | viability, T/C (second compound 3.16 µM, first compound 0.000316 µM): 89.2% | viability, T/C (second compound 3.16 µM, first compound 0.001 µM): 92.1% | viability, T/C (second compound 3.16 µM, first compound 0.00316 µM): 93.2% | viability, T/C (second compound 3.16 µM, first compound 0.01 µM): 83.4% | viability, T/C [7]: 68.5% | viability, T/C [8]: 43.5% | viability, T/C (second compound 10 µM, first compound 0.000316 µM): 91.8% | viability, T/C (second compound 10 µM, first compound 0.001 µM): 92.2% | viability, T/C (second compound 10 µM, first compound 0.00316 µM): 92.1% | viability, T/C (second compound 10 µM, first compound 0.01 µM): 87.6% | viability, T/C [9]: 58% | viability, T/C [10]: 44.1%

CCc1c2c(nc3ccc(O)cc13)-c1cc3c(c(=O)n1C2)COC(=O)[C@]3(O)CC + Cc1ccccc1N=Nc1ccc(NC(=O)c2ccnn2C)c(C)c1
IC50 (second compound 0.1 µM): 9.05 nM | IC50 (second compound 0.316 µM): 8.31 nM | IC50 (second compound 1 µM): 9.91 nM | IC50 (second compound 3.16 µM): 10.5 nM | IC50 (second compound 10 µM): 13.4 nM | viability, T/C (second compound 0.1 µM, first compound 0.000949 µM): 98.3% | viability, T/C (second compound 0.1 µM, first compound 0.003 µM): 97.7% | viability, T/C (second compound 0.1 µM, first compound 0.00949 µM): 48% | viability, T/C (second compound 0.1 µM, first compound 0.03 µM): 35.2% | viability, T/C (second compound 0.1 µM, first compound 0.0949 µM): 38.4% | viability, T/C (second compound 0.1 µM, first compound 0.3 µM): 37.7% | viability, T/C (second compound 0.316 µM, first compound 0.000949 µM): 103% | viability, T/C (second compound 0.316 µM, first compound 0.003 µM): 80.9% | viability, T/C (second compound 0.316 µM, first compound 0.00949 µM): 47% | viability, T/C (second compound 0.316 µM, first compound 0.03 µM): 30.5% | viability, T/C (second compound 0.316 µM, first compound 0.0949 µM): 32.5% | viability, T/C (second compound 0.316 µM, first compound 0.3 µM): 32.3% | viability, T/C (second compound 1 µM, first compound 0.000949 µM): 94% | viability, T/C (second compound 1 µM, first compound 0.003 µM): 90.9% | viability, T/C (second compound 1 µM, first compound 0.00949 µM): 50.5% | viability, T/C (second compound 1 µM, first compound 0.03 µM): 36.4% | viability, T/C (second compound 1 µM, first compound 0.0949 µM): 36.3% | viability, T/C (second compound 1 µM, first compound 0.3 µM): 40.6% | viability, T/C (second compound 3.16 µM, first compound 0.000949 µM): 93.2% | viability, T/C (second compound 3.16 µM, first compound 0.003 µM): 79.1% | viability, T/C (second compound 3.16 µM, first compound 0.00949 µM): 52.5% | viability, T/C (second compound 3.16 µM, first compound 0.03 µM): 35.6% | viability, T/C (second compound 3.16 µM, first compound 0.0949 µM): 39.8% | viability, T/C (second compound 3.16 µM, first compound 0.3 µM): 41.4% | viability, T/C (second compound 10 µM, first compound 0.000949 µM): 83.1% | viability, T/C (second compound 10 µM, first compound 0.003 µM): 82.2% | viability, T/C (second compound 10 µM, first compound 0.00949 µM): 53.7% | viability, T/C (second compound 10 µM, first compound 0.03 µM): 40.4% | viability, T/C (second compound 10 µM, first compound 0.0949 µM): 40.5% | viability, T/C (second compound 10 µM, first compound 0.3 µM): 43.5%

Nc1ccn(C2OC(CO)C(O)C2(F)F)c(=O)n1 (stereo not given) + Cc1ccccc1N=Nc1ccc(NC(=O)c2ccnn2C)c(C)c1
IC50 (second compound 0.1 µM): < 31.6 nM | IC50 (second compound 0.316 µM): < 31.6 nM | IC50 (second compound 1 µM): < 31.6 nM | IC50 (second compound 3.16 µM): < 31.6 nM | IC50 (second compound 10 µM): < 31.6 nM | viability, T/C [1]: 21.8% | viability, T/C [2]: 23.8% | viability, T/C (second compound 0.1 µM, first compound 0.316 µM): 25.1% | viability, T/C (second compound 0.1 µM, first compound 1 µM): 23.9% | viability, T/C (second compound 0.1 µM, first compound 3.16 µM): 25.7% | viability, T/C (second compound 0.1 µM, first compound 10 µM): 25.5% | viability, T/C [3]: 25.6% | viability, T/C [4]: 28.2% | viability, T/C (second compound 0.316 µM, first compound 0.316 µM): 26.3% | viability, T/C (second compound 0.316 µM, first compound 1 µM): 23% | viability, T/C (second compound 0.316 µM, first compound 3.16 µM): 23.2% | viability, T/C (second compound 0.316 µM, first compound 10 µM): 24.2% | viability, T/C [5]: 25.5% | viability, T/C [6]: 24.6% | viability, T/C (second compound 1 µM, first compound 0.316 µM): 26.5% | viability, T/C (second compound 1 µM, first compound 1 µM): 23.7% | viability, T/C (second compound 1 µM, first compound 3.16 µM): 26.4% | viability, T/C (second compound 1 µM, first compound 10 µM): 25.7% | viability, T/C [7]: 25.4% | viability, T/C [8]: 27.7% | viability, T/C (second compound 3.16 µM, first compound 0.316 µM): 28.3% | viability, T/C (second compound 3.16 µM, first compound 1 µM): 24.9% | viability, T/C (second compound 3.16 µM, first compound 3.16 µM): 26.8% | viability, T/C (second compound 3.16 µM, first compound 10 µM): 28.5% | viability, T/C [9]: 29.2% | viability, T/C [10]: 32.7% | viability, T/C (second compound 10 µM, first compound 0.316 µM): 29.4% | viability, T/C (second compound 10 µM, first compound 1 µM): 31.7% | viability, T/C (second compound 10 µM, first compound 3.16 µM): 31.7% | viability, T/C (second compound 10 µM, first compound 10 µM): 30%
